Reference: US12018083B2, “Method for suppressing regulatory T cell infiltration by CCR4 inhibition and method for treating canine neoplastic disease” (NIPPON ZENYAKU KOGYO CO., LTD., priority 2017, dated 2024)

Legend:
breast cancer = assay: Clinical test on dogs, antitumor effects; format: in vivo, dog; conditions: 1/2 cases, 1 mg/kg intravenous every three weeks; FIG. 17
[1] = system: CCR4-positive T cells in blood; assay: Single intravenous administration of anti-human CCR4 antibody to healthy dog; format: in vivo
Text: Furthermore, the effects were sustained for 3 to 4 weeks. […] These side effects were improved 1 week after the administration, without any treatments.

[2] = system: canine transitional cell carcinoma cell line; assay: Cancer-bearing mouse models, NOG mice transplanted with canine tumor cells; format: in vivo
Experimental: A comparison was made among the groups, in terms of the tumor volume of the transplanted transitional cell carcinoma cells. […] The tumor tissues were collected from each group at the end point, and the collected tumor tissues were subjected to a histopathologic examination involving H & E (Hematoxylin-Eosin) staining. […] In FIG. 11, the whitish portion in the black-and-white photograph indicates a focus of necrosis. […] Furthermore, intratumoral infiltration of Tregs was evaluated by performing immunohistochemistry on Foxp3. […] In FIG. 12, the portions seen as black points in the black-and-white photograph are sites in which Foxp3-positive Tregs are present.

canine CCR4 = molecular target: T1, canine CCR4 (Canis lupus familiaris, UniProt Q8MJW8); assay: Chemotaxis assay with a membrane chamber, canine lymphocyte cell line CL-1 and canine recombinant CCL17; format: cell-based; conditions: canine lymphocyte cell line CL-1; FIG. 8
T1 construct: Using a canine lymphocyte cell line (CL-1) expressing canine recombinant CCL17 and CCR4, a chemotaxis assay was carried out; endogenous in cells; host or cells: CL-1 canine lymphocyte cell line
T1 sequence (Q8MJW8 1-360): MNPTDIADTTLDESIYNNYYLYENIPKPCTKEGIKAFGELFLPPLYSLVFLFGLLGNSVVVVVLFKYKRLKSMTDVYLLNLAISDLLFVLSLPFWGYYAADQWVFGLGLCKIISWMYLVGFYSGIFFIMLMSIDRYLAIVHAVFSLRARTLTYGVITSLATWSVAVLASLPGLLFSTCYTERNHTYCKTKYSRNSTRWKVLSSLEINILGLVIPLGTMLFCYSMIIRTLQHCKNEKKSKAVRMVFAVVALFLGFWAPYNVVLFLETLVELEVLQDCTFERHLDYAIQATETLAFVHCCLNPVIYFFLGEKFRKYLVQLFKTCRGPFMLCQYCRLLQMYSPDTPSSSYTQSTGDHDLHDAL
Experimental: Thus, the cross-reactivity of these inhibitors with canine CCR4 was studied. Using a canine lymphocyte cell line (CL-1) expressing canine recombinant CCL17 and CCR4, a chemotaxis assay was carried out with a membrane chamber.

prostate cancer = assay: Clinical test on dogs, antitumor effects; format: in vivo, dog; conditions: 2/4 cases, 1 mg/kg intravenous every three weeks; FIG. 16
[3] = system: transitional cell carcinoma; assay: Clinical test on dogs, antitumor effects; format: in vivo, dog; conditions: 5/11 cases, 1 mg/kg intravenous every three weeks; FIG. 15
[4] = system: canine transitional cell carcinoma; assay: Clinical test of Mogamulizumab combined with Piroxicam versus Piroxicam alone
Experimental: To the control group, Piroxicam alone was administered (14 cases). The number of CCR4-positive Tregs in the peripheral blood and a tumor size were evaluated before and after the administration.
In the figure, the terms “PR,” “SD,” and “PD” indicate definitions regarding a change in the size of a tumor in the midcourse of a treatment according to RECIST (Response Evaluation Criteria in Solid Tumors), which are evaluation criteria regarding therapeutic effects on solid cancers. Specifically, PR (Partial Response) indicates a state in which a sum of the sizes of tumors has been reduced by 30% or more, SD (Stable Disease) indicates a state in which the size of a tumor has not changed, and PD (Progressive Disease) indicates a state in which a sum of the sizes of tumors has been increased by 20% or more and the size has been increased by 5 mm or more as an absolute value, or a state in which a new lesion has appeared.

[5] = system: CCR4-positive Tregs in the peripheral blood; assay: Clinical test on dogs with various tumors, all 17 cases; format: in vivo, dog; conditions: 1 mg/kg intravenous every three weeks
Text: In the case of prostate cancer, 2/4 cases (50%) had partial response, and 2/4 cases (50%) were stable (FIG. 16). In the case of breast cancer, 1/2 cases (50%) had partial response, and 1/2 cases (50%) was stable (FIG. 17). […] However, all of the side effects were mild.

Molecule: Mogamulizumab: anti-human CCR4 antibody (Kyowa Kirin Co., Ltd.), a neutralizing antibody
- cases with partial response (breast cancer): 50%
- side effects ([1]; 1 mg/kg intravenous): nausea, a slight increase in ALP, and a slight increase in CRP
- time after administration at which side effects improved without any treatments ([1]; 1 mg/kg intravenous): 1 week
- number of CCR4-positive T cells in blood ([1]; 1 mg/kg intravenous, flow cytometry, FIG. 9): reduced by half
- side effects ([1]; 0.01 to 0.1 mg/kg intravenous): no side effects were found
- intratumoral infiltration of Tregs (Foxp3 immunohistochemistry) ([2]; combined use group of canine PBMC and Mogamulizumab versus canine PBMC group, FIG. 12, 13): significantly suppressed
- focus of necrosis in tumor tissue (H & E staining) ([2]; combined use group of canine PBMC and Mogamulizumab, compared with other groups, FIG. 11): an expansion of the focus of necrosis was observed
- growth of the tumor (tumor volume) ([2]; combined use group of canine PBMC and Mogamulizumab, FIG. 10): significantly suppressed
- migration of CL-1 by the recombinant CCL17 (canine CCR4): significantly suppressed
- cases with partial response (prostate cancer): 50%
- cases with partial response [3]: 45.5%
- number of CCR4-positive Tregs in the peripheral blood ([4]; after Mogamulizumab 1 mg/kg IV every three weeks plus Piroxicam 0.3 mg/kg PO daily, FIG. 18, 19): reduced
- response percentage according to RECIST ([4]; combined use group with Mogamulizumab versus single administration group of Piroxicam, FIG. 22, 23): higher response percentage
- progression-free survival periods (PFS) ([4]; combined use group with Mogamulizumab versus single administration group of Piroxicam, FIG. 24): better improvement
- overall survival periods (OS) ([4]; combined use group with Mogamulizumab versus single administration group of Piroxicam, FIG. 25): better improvement
- tumor (mass) size / tumor volume ([4]; combined use group with Mogamulizumab, FIG. 20, 21): reduced
- side effect: facial edema and/or redness, cases ([5]; 1/17 cases): 5.9%
- side effect: slight increase in ALP, cases ([5]; 3/17 cases): 17.6%
- side effect: vomiting, cases ([5]; 3/17 cases): 17.6%
- severity of all of the side effects ([5]; 17 cases): mild
- number of CCR4-positive Tregs in peripheral blood ([5]; all cases, FIG. 14): drastically reduced

Molecule: COc1cc2nc(N3CCC(N4CCCCC4)CC3)nc(NC3CCCCCC3)c2cc1OC.Cl.Cl [C-021, 2-[1,4′-bipiperidin]-1′-yl-N-cycloheptyl-6,7-dimethoxy-4-quinazolinamine dihydrochloride]
- migration of CL-1 by the recombinant CCL17 (canine CCR4): significantly suppressed
